In patent US20060263895A1, “Method for monitoring the stereoselectivity and relative rate of organic chemical reactions” (priority 2005, published 2006):

Key:
[1] = Double cuvette-ISES (in situ enzymatic screening) of Co(III)-salen mediated HKR of (±)-propylene oxide; conditions: for % ee of the 1,2-propanediol product, as predicted by double-cuvette ISES (upper number): bilayer of pH 8.6 buffer over 7.2 M epoxide in CHCl3, 0.25 mol % catalyst, 15-35 min, + = (S), − = (R)
Description: Aqueous reporting layers. containing TBADH/NADP+ (cuvette 1) and HLADH/NAD+ (cuvette 2), respectively, are then added. The increase in absorbance at 340 nm can be followed for several such sets in parallel by UV-vis spectrophotometry. The kinetic data are then used to make the double-cuvette ISES predictions.
A general procedure for double cuvette-ISES to estimate both enantioselectivities and relative rates for an array of catalysts being screened in parallel is presented below. The hydrolytic kinetic resolution (HKR) of (±) propylene oxide was chosen as model reaction.
Typically, quartz cuvettes with one cm light paths and with nominal one mL volumes were used. For each catalyst, a two cuvette screen was performed, with cuvette A containing HLADH, as (S)-propanediol-selective reporting enzyme, and cuvette B containing TBADH, as a (R)-propanediol-selective reporting enzyme. For each cuvette, the final volume was 800 μL (300 μL of organic layer; 500 μL of aqueous layer).
Both cuvettes A and B had the following composition: 150 μL (2.15 mmol) of (±)-propylene oxide (7.2 M in organic layer), 150 μL of CHCl3 and 0.25 mol % Co(III)-salen catalyst. The total organic layer volume was maintained as 300 μL in all catalyst screens.
(i) Cuvette A: 0.35 U HLADH (17.6 μL from a stock solution (0.02U/μL)), 7.2 mM β-NAD+(16.5 μL from a 220 mM stock) and 465.8 μL of 50 mM sodium pyrophosphate buffer, pH 8.8. The final pH was 8.6.
(ii) Cuvette B: 0.35 U TBADH (15.8 μL from a stock solution (0.022U/μL)) of, 2.2 mM β-NADP+ (5 μL from a 220 mM stock) and 479.5 μL of 50 mM sodium pyrophosphate buffer, pH 8.8. The final pH was 8.6. The total volume of the aqueous layer was maintained as 500 μL in both cuvettes in all ISES experiments.
C. Step by Step Protocol: A catalyst stock solution (22 μmol of catalyst in 620 μL CHCl3) was made up in a 1.5 ml microcentrifuge tube, and stored on ice, along with a stock of (±)-propylene oxide, in a separate tube. The organic layers were prepared by briefly vortexing 150 μL (5.4 μmol, 0.25 mol %) of the catalyst stock in CHCl3 with 150 μL (2.15 mmol) of (±)-propylene oxide in iced microcentrifuge tubes. These were loaded into 1 mL quartz cuvettes using precooled (refrigerator), disposable 1 mL syringes. The aqueous layers were then layered on top of the organic layers, by syringe, down the walls of the cuvette.

[2] = HKR of (±)-propylene oxide under standard neat 'Jacobsen conditions' (NMR conversion, chiral HPLC ee); conditions: for NMR conv. (time) / % ee (HPLC): loading 0.25 mol %; for % ee of the 1,2-propanediol product, as observed by chiral HPLC (lower number): neat propylene oxide, 0.55 equiv. H2O, 0.25 mol % catalyst, 3 h reaction time
Description: Salens in the fully synthetic, 42 member focused library that led to catalysts with appreciable activity, as indicated by double cuvette-ISES, were also evaluated ‘outside of the cuvette,’ under conditions more typically employed in HKR reactions. Specifically, these Co(III)-salen catalysts were evaluated in the HKR of (±)-propylene oxide, under neat conditions, similar to those described by Jacobsen and coworkers. Reactions were arbitrarily stopped after 3 hours, to obtain the enantiopurity of the 1,2-propanediol product at relatively early reaction times, for comparison with ISES predictions.
A typical procedure follows: To the Co(III)-salen catalyst derived from 7e (5.4 mg, 5.4 μmol, 0.25 mol %) and (±)-propylene oxide (125 mg, 2.15 mmol) at 0° C., was added water (21 μL, 1.18 mmol, 0.55 equiv.). The reaction mixture was securely capped, and allowed to warm to room temperature and stirred, most commonly for a total of 3 hours. Percent conversion at 3 hours was evaluated by 1H NMR of an aliquot (cooled to 0° C. for the transfer), in CDCl3. In most of these cases, the conversion was low enough after 3 hours, that the unreacted epoxide (bp 32° C.) was of relatively low ee, and was therefore removed by evaporation under aspirator vacuum. When the conversion was less than 5% by NMR after 3 hours, reactions were continued for longer times.
Upon termination of the reaction, the diol product was isolated by Kugelrohr distillation (˜120° C.-oven temp; 0.1 torr). To determine ee, the isolated diol was derivatized using p-bromobenzoyl imidazole (2.2 equiv.) in THF in the presence of NaH (4 equiv.) at room temperature for 5 min. The bis(p-bromobenzoate) esters obtained following sequential washes with 1 N HCl and saturated sodium bicarbonate, were of sufficient purity to be used directly for chiral HPLC analysis (Chiralcel OD, 99% […]). [drawing 23] [drawing 24] [drawing 25] [drawing 26] [drawing 27]

[3] = reaction stopped at the time given (mostly 3 h), + = (S), − = (R)

## Oc1cc(OCc2ccccc2)ccc1C=NC[C@H](Cc1ccc2ccccc2c1)N=Cc1ccc(OCc2ccccc2)cc1O [Salen 5f, N,N′-Bis(4′-benzyloxysalicylidene)-(1S)-(β-naphthylmethyl)-1,2-ethylenediamine]
[1]; over 35 min
  ISES signal: § (These catalysts gave ISES signals <20 mAbs min−1 over 35 min.)

## CC(C)(C)c1cc(C=NC[C@H](Cc2ccccc2)N=Cc2cc(C(C)(C)C)cc(C(C)(C)C)c2O)c(O)c(C(C)(C)C)c1 [Salen 3a, N,N′-Bis(3′,5′-di-tert-butylsalicylidene)-(1S)-benzyl-1,2-ethylenediamine]
[1]
  % ee of the 1,2-propanediol product, as predicted by double-cuvette ISES (upper number): +48 % ee
[2]; 3 h
  NMR conv. (time): 46 (3 h) %
[2]; [3]
  % ee (HPLC): +55 (S) % ee
[2]; + = (S), − = (R)
  % ee of the 1,2-propanediol product, as observed by chiral HPLC (lower number): +55 % ee

## CO[C@H]1[C@@H]2OC(C)(C)O[C@@H]2COC1(CN=Cc1c(O)ccc2ccccc12)N=Cc1c(O)ccc2ccccc12 (stereo partly drawn) [Salen 6c, N,N′-Bis(2′-hydroxy-1′-naphthylidene)-3-O-methyl-4,5-O-isopropylidene-1,2-dideoxy-Dfructopyranosyl-1,2-diamine]
[1]; over 35 min
  ISES signal: § (These catalysts gave ISES signals <20 mAbs min−1 over 35 min.)

## Oc1ccc2ccccc2c1C=NC[C@@H](N=Cc1c(O)ccc2ccccc12)c1ccccc1 [Salen 2c, N,N′-Bis(2′-hydroxy-1′-naphthylidene)-(1S)-phenyl-1,2-ethylenediamine]
[1]; over 35 min
  ISES signal: § (These catalysts gave ISES signals <20 mAbs min−1 over 35 min.)

## Oc1c(C=NC[C@@H](N=Cc2ccc3ccccc3c2O)c2ccccc2)ccc2ccccc12 [Salen 2d, N,N′-Bis(1′-hydroxy-2′-naphthylidene)-(1S)-phenyl-1,2-ethylenediamine]
[1]
  % ee of the 1,2-propanediol product, as predicted by double-cuvette ISES (upper number): −15 % ee
[2]; 22 h
  NMR conv. (time): 19 (22 h) %
[2]; [3]
  % ee (HPLC): −54 (R) % ee
[2]; + = (S), − = (R)
  % ee of the 1,2-propanediol product, as observed by chiral HPLC (lower number): −54 % ee

## Oc1cc(OCc2ccccc2)ccc1C=NC[C@@H](N=Cc1ccc(OCc2ccccc2)cc1O)c1ccccc1 [Salen 2f, N,N′-Bis(4′-benzyloxysalicylidene)-(1S)-phenyl-1,2-ethylenediamine]
[1]; over 35 min
  ISES signal: § (These catalysts gave ISES signals <20 mAbs min−1 over 35 min.)

## Oc1ccc2ccccc2c1C=NC[C@H](Cc1ccc2ccccc2c1)N=Cc1c(O)ccc2ccccc12 [Salen 5c]
[1]; over 35 min
  ISES signal: § (These catalysts gave ISES signals <20 mAbs min−1 over 35 min.)

## N,N′-Bis(8′-hydroxy-1′,1′,7′,7′-tetramethyljulolidine-9′-methylidene)-[1R-(1α,2α,5α)]-2-amino-7,7-dimethyl-2-bicyclo[3.3.1]heptane-ethanamine [Salen 1g]
[1]; over 35 min
  ISES signal: § (These catalysts gave ISES signals <20 mAbs min−1 over 35 min.)

## Oc1ccc2ccccc2c1C=NC[C@H](Cc1ccccc1)N=Cc1c(O)ccc2ccccc12 [Salen 3c, N,N′-Bis(2′-hydroxy-1′-naphthylidene)-(1S)-benzyl-1,2-ethylenediamine]
[1]; over 35 min
  ISES signal: § (These catalysts gave ISES signals <20 mAbs min−1 over 35 min.)
[2]; time not given
  NMR conv. (time): none obs

## CC1(C)CCN2CCC(C)(C)c3c(O)c(C=NC[C@@H](N=Cc4cc5c6c(c4O)C(C)(C)CCN6CCC5(C)C)c4ccccc4)cc1c32 [Salen 2g, N,N′-Bis(8′-hydroxy-1′,1′,7′,7′-tetramethyljulolidinyl-9′-methylidene)-(1S)-phenyl-1,2-ethylenediamine]
[1]
  % ee of the 1,2-propanediol product, as predicted by double-cuvette ISES (upper number): −41 % ee
[1]; over 35 min
  ISES rate in the HLADH cuvette: 14.9 mAbs min−1
[2]; @3 h
  % ee (HPLC): −71@3 h, % ee
[2]; @20 h
  % ee (HPLC): −65@20 h (R) % ee
[2]; + = (S), − = (R)
  % ee of the 1,2-propanediol product, as observed by chiral HPLC (lower number): −71 % ee

## N,N′-Bis(2′-hydroxy-1′-naphthylidene)-[1R-(1α,2α,5α)]-2-amino-7,7-dimethyl-2-bicyclo[3.3.1]heptane-ethanamine [Salen 1c]
[1]; over 35 min
  ISES signal: § (These catalysts gave ISES signals <20 mAbs min−1 over 35 min.)

## Oc1cc(OCc2ccccc2)ccc1C=NC[C@H](Cc1ccccc1)N=Cc1ccc(OCc2ccccc2)cc1O [Salen 3f, N,N′-Bis(4′-benzyloxysalicylidene)-(1S)-benzyl-1,2-ethylenediamine]
[1]; over 35 min
  ISES signal: § (These catalysts gave ISES signals <20 mAbs min−1 over 35 min.)

## COC1C2OC(C)(C)OC2COC1(CN=Cc1ccc(OCc2ccccc2)cc1O)N=Cc1ccc(OCc2ccccc2)cc1O (stereo not drawn) [Salen 7f, N,N′-Bis(4′-benzyloxysalicylidene)-3-O-methyl-4,5-O-isopropylidene-1,2-dideoxy-β-Dfructopyranosyl-1,2-diamine]
[1]; over 35 min
  ISES signal: § (These catalysts gave ISES signals <20 mAbs min−1 over 35 min.)

## N,N′-Bis(4′-benzyloxysalicylidene)-[1R-(1α,2α,5α)]-2-amino-7,7-dimethyl-2-bicyclo[3.3.1]heptane-ethanamine [Salen 1f]
[1]; over 35 min
  ISES signal: § (These catalysts gave ISES signals <20 mAbs min−1 over 35 min.)

## CC1(C)CCN2CCC(C)(C)c3c(O)c(C=NC[C@H](Cc4ccc5ccccc5c4)N=Cc4cc5c6c(c4O)C(C)(C)CCN6CCC5(C)C)cc1c32 [Salen 5g, N,N′-Bis(8′-hydroxy-1′,1′,7′,7′-tetramethyljulolidinyl-9′-methylidene)-(1S)-(β-naphthylmethyl)-1,2-ethylenediamine]
[1]; over 35 min
  ISES signal: § (These catalysts gave ISES signals <20 mAbs min−1 over 35 min.)

## Oc1c(I)cc(I)cc1C=NC[C@H](Cc1ccccc1)N=Cc1cc(I)cc(I)c1O [Salen 3e, N,N′-Bis(3′,5′-diiodosalicylidene)-(1S)-benzyl-1,2-ethylenediamine]
[1]; over 35 min
  ISES signal: § (These catalysts gave ISES signals <20 mAbs min−1 over 35 min.)

## COC1C2OC(C)(C)OC2COC1(CN=Cc1ccc2ccccc2c1O)N=Cc1ccc2ccccc2c1O (stereo not drawn) [Salen 7d, N,N′-Bis(1′-hydroxy-2′-naphthylidene)-3-O-methyl-4,5-O-isopropylidene-1,2-dideoxy-β-Dfructopyranosyl-1,2-diamine]
[1]; over 35 min
  ISES signal: § (These catalysts gave ISES signals <20 mAbs min−1 over 35 min.)

## Oc1ccc2ccccc2c1C=NC[C@H](Cc1cccc2ccccc12)N=Cc1c(O)ccc2ccccc12 [Salen 4c, N,N′-Bis(2′-hydroxy-1′-naphthylidene)-(1S)-(α-naphthylmethyl)-1,2-ethylenediamine]
[1]; over 35 min
  ISES signal: § (These catalysts gave ISES signals <20 mAbs min−1 over 35 min.)

## CC1(C)CCN2CCC(C)(C)c3c(O)c(C=NC[C@H](Cc4cccc5ccccc45)N=Cc4cc5c6c(c4O)C(C)(C)CCN6CCC5(C)C)cc1c32 [Salen 4g, N,N′-Bis(8′-hydroxy-1′,1′,7′,7′-tetramethyljulolidinyl-9′-methylidene)-(1S)-α-naphthylmethyl-1,2-ethylenediamine]
[1]; over 35 min
  ISES signal: § (These catalysts gave ISES signals <20 mAbs min−1 over 35 min.)
